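48-hour exposure; five concentrations; linearly interpolated endpoints. GI50: concentration for 50% inhibition of growth. Definition used: TGI = concentration required for complete inhibition of growth.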
Key:
Assay in all cases: DTP human tumour cell line panel, 48 h
OVCAR-5 ovarian = tested on: OVCAR-5 ovarian
IGROV1 ovarian = tested on: IGROV1 ovarian
NCI-H460 lung = tested on: NCI-H460 lung
LOX IMVI melanoma = tested on: LOX IMVI melanoma
COLO 205 colon = tested on: COLO 205 colon
KM12 colon = tested on: KM12 colon
SN12C renal = tested on: SN12C renal
SK-MEL-28 melanoma = tested on: SK-MEL-28 melanoma
RXF 393 renal = tested on: RXF 393 renal
EKVX NSCLC = tested on: EKVX NSCLC
MDA-MB-468 breast = tested on: MDA-MB-468 breast
TK-10 renal = tested on: TK-10 renal
OVCAR-4 ovarian = tested on: OVCAR-4 ovarian
DU-145 prostate = tested on: DU-145 prostate
HCT-116 colon = tested on: HCT-116 colon
SK-OV-3 ovarian = tested on: SK-OV-3 ovarian
PC-3 prostate = tested on: PC-3 prostate
HT29 colon = tested on: HT29 colon
NCI/ADR-RES ovarian = tested on: NCI/ADR-RES ovarian
MCF7 breast = tested on: MCF7 breast
A549 NSCLC = tested on: A549 NSCLC
SK-MEL-2 melanoma = tested on: SK-MEL-2 melanoma
HS 578T breast = tested on: HS 578T breast
SR leukemia = tested on: SR leukemia
SW-620 colon = tested on: SW-620 colon
HCT-15 colon = tested on: HCT-15 colon
BT-549 breast = tested on: BT-549 breast
OVCAR-3 ovarian = tested on: OVCAR-3 ovarian
SNB-19 CNS = tested on: SNB-19 CNS
K-562 leukemia = tested on: K-562 leukemia
CAKI-1 renal = tested on: CAKI-1 renal
SNB-75 CNS = tested on: SNB-75 CNS
786-0 renal = tested on: 786-0 renal
UO-31 renal = tested on: UO-31 renal
UACC-257 melanoma = tested on: UACC-257 melanoma
HOP-62 NSCLC = tested on: HOP-62 NSCLC
HL-60(TB) leukemia = tested on: HL-60(TB) leukemia
SK-MEL-5 melanoma = tested on: SK-MEL-5 melanoma
A498 renal = tested on: A498 renal
SF-295 CNS = tested on: SF-295 CNS
MDA-MB-435 = tested on: MDA-MB-435
HCC-2998 colon = tested on: HCC-2998 colon
HOP-92 NSCLC = tested on: HOP-92 NSCLC
M14 melanoma = tested on: M14 melanoma
UACC-62 melanoma = tested on: UACC-62 melanoma
ACHN renal = tested on: ACHN renal
NCI-H23 lung = tested on: NCI-H23 lung
MOLT-4 leukemia = tested on: MOLT-4 leukemia
MALME-3M melanoma = tested on: MALME-3M melanoma
CCRF-CEM leukemia = tested on: CCRF-CEM leukemia
NCI-H522 lung = tested on: NCI-H522 lung
SF-539 CNS = tested on: SF-539 CNS
NCI-H226 lung = tested on: NCI-H226 lung
MDA-MB-231 breast = tested on: MDA-MB-231 breast
T-47D breast = tested on: T-47D breast

For `[2H]C([2H])([2H])Oc1ccc2ncc(C#Cc3cncc(C(=O)Nc4ccc(CN5CCN(C)CC5)c(C(F)(F)F)c4)c3)n2n1`, the GI50 (OVCAR-5 ovarian) was 507 nM, the TGI (OVCAR-5 ovarian) was 1800 nM and the GI50 (IGROV1 ovarian) was 581 nM. For the same molecule, the TGI (IGROV1 ovarian) was 2040 nM, the GI50 (NCI-H460 lung) was 239 nM and the TGI (NCI-H460 lung) was 1810 nM. For the same molecule, the GI50 (LOX IMVI melanoma) was 446 nM, the TGI (LOX IMVI melanoma) was 1800 nM and the GI50 (COLO 205 colon) was 238 nM. For the same molecule, the TGI (COLO 205 colon) was 719 nM, the GI50 (KM12 colon) was 9.42 nM and the TGI (KM12 colon) was 1350 nM. The GI50 (SN12C renal) was 498 nM, the TGI (SN12C renal) was 1810 nM and the GI50 (SK-MEL-28 melanoma) was 1160 nM. For the same molecule, the TGI (SK-MEL-28 melanoma) was 2410 nM, the GI50 (RXF 393 renal) was 1150 nM and the TGI (RXF 393 renal) was 2500 nM. For the same molecule, the GI50 (EKVX NSCLC) was 606 nM, the TGI (EKVX NSCLC) was 2220 nM and the GI50 (MDA-MB-468 breast) was 1200 nM. For the same molecule, the TGI (MDA-MB-468 breast) was 2950 nM, the GI50 (TK-10 renal) was 3170 nM and the TGI (TK-10 renal) was 7630 nM. It also gave a GI50 (OVCAR-4 ovarian) of 1000 nM, a TGI (OVCAR-4 ovarian) of 2630 nM and a GI50 (DU-145 prostate) of 930 nM. It also gave a TGI (DU-145 prostate) of 2150 nM, a GI50 (HCT-116 colon) of 67.7 nM and a TGI (HCT-116 colon) of 1240 nM. It also gave a GI50 (SK-OV-3 ovarian) of 4030 nM, a TGI (SK-OV-3 ovarian) of 18600 nM and a GI50 (PC-3 prostate) of 940 nM. The TGI (PC-3 prostate) was 2350 nM, the GI50 (HT29 colon) was 303 nM and the TGI (HT29 colon) was 1410 nM. It also gave a GI50 (NCI/ADR-RES ovarian) of 1180 nM, a TGI (NCI/ADR-RES ovarian) of 2650 nM and a GI50 (MCF7 breast) of 50.3 nM. The TGI (MCF7 breast) was 1460 nM, the GI50 (A549 NSCLC) was 742 nM and the TGI (A549 NSCLC) was 2370 nM. The GI50 (SK-MEL-2 melanoma) was 1090 nM, the TGI (SK-MEL-2 melanoma) was 6340 nM and the GI50 (HS 578T breast) was 444 nM. For the same molecule, the TGI (HS 578T breast) was 6360 nM, the GI50 (SR leukemia) was 60.6 nM and the TGI (SR leukemia) was 94200 nM. For the same molecule, the GI50 (SW-620 colon) was 167 nM, the TGI (SW-620 colon) was 1180 nM and the GI50 (HCT-15 colon) was 387 nM. For the same molecule, the TGI (HCT-15 colon) was 1640 nM, the GI50 (BT-549 breast) was 833 nM and the TGI (BT-549 breast) was 10400 nM. For the same molecule, the GI50 (OVCAR-3 ovarian) was 1600 nM, the TGI (OVCAR-3 ovarian) was 5830 nM and the GI50 (SNB-19 CNS) was 1390 nM. It also gave a TGI (SNB-19 CNS) of 2640 nM, a GI50 (K-562 leukemia) of 9.42 nM and a TGI (K-562 leukemia) of 94200 nM. The GI50 (CAKI-1 renal) was 619 nM, the TGI (CAKI-1 renal) was 4540 nM and the GI50 (SNB-75 CNS) was 1920 nM. The TGI (SNB-75 CNS) was 6090 nM, the GI50 (786-0 renal) was 1370 nM and the TGI (786-0 renal) was 2660 nM. It also gave a GI50 (UO-31 renal) of 1030 nM, a TGI (UO-31 renal) of 2220 nM and a GI50 (UACC-257 melanoma) of 995 nM. It also gave a TGI (UACC-257 melanoma) of 3730 nM, a GI50 (HOP-62 NSCLC) of 656 nM and a TGI (HOP-62 NSCLC) of 4540 nM. For the same molecule, the GI50 (HL-60(TB) leukemia) was 101 nM, the TGI (HL-60(TB) leukemia) was 1990 nM and the GI50 (SK-MEL-5 melanoma) was 2270 nM. For the same molecule, the TGI (SK-MEL-5 melanoma) was 6890 nM, the GI50 (A498 renal) was 8640 nM and the TGI (A498 renal) was 27800 nM. For the same molecule, the GI50 (SF-295 CNS) was 839 nM, the TGI (SF-295 CNS) was 7230 nM and the GI50 (MDA-MB-435) was 321 nM. The TGI (MDA-MB-435) was 1770 nM, the GI50 (HCC-2998 colon) was 1030 nM and the TGI (HCC-2998 colon) was 2700 nM. For the same molecule, the GI50 (HOP-92 NSCLC) was 173 nM, the TGI (HOP-92 NSCLC) was 833 nM and the GI50 (M14 melanoma) was 377 nM. For the same molecule, the TGI (M14 melanoma) was 1620 nM, the GI50 (UACC-62 melanoma) was 5270 nM and the TGI (UACC-62 melanoma) was 21000 nM. It also gave a GI50 (ACHN renal) of 574 nM, a TGI (ACHN renal) of 11200 nM and a GI50 (NCI-H23 lung) of 350 nM. The TGI (NCI-H23 lung) was 1630 nM, the GI50 (MOLT-4 leukemia) was 66.8 nM and the TGI (MOLT-4 leukemia) was 2020 nM. For the same molecule, the GI50 (MALME-3M melanoma) was 291 nM, the TGI (MALME-3M melanoma) was 1490 nM and the GI50 (CCRF-CEM leukemia) was 43 nM. For the same molecule, the TGI (CCRF-CEM leukemia) was 3740 nM, the GI50 (NCI-H522 lung) was 1140 nM and the TGI (NCI-H522 lung) was 7230 nM. For the same molecule, the GI50 (SF-539 CNS) was 112 nM, the TGI (SF-539 CNS) was 1060 nM and the GI50 (NCI-H226 lung) was 124 nM. For the same molecule, the TGI (NCI-H226 lung) was 2590 nM, the GI50 (MDA-MB-231 breast) was 278 nM and the TGI (MDA-MB-231 breast) was 1530 nM. For the same molecule, the GI50 (T-47D breast) was 12100 nM and the TGI (T-47D breast) was 57300 nM.
